The text below walks through data of patent US9290511B2, “Thieno-pyrimidines, useful as potassium channel inhibitors” (XENTION LIMITED, priority 2011, dated 2016).

The target of the experiment is T1, Kir3.1/3.4 (Rattus norvegicus, UniProt P48548+P63251).
T1 construct: expressed in transfected cells
T1 sequence (P63251 1-501): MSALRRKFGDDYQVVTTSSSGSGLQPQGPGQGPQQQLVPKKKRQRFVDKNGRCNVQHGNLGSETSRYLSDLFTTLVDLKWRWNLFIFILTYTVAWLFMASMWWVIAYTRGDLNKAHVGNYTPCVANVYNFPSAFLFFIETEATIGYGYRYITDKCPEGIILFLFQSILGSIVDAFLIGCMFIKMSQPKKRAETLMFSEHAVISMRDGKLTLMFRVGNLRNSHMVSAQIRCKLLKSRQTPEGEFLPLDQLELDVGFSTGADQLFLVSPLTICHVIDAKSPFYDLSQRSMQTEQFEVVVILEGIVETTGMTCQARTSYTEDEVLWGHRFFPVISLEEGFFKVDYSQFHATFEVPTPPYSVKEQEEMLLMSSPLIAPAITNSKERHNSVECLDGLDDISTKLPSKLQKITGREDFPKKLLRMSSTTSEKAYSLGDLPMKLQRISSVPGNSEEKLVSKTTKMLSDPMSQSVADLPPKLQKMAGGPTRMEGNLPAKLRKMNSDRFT
T1 sequence (P48548 1-419): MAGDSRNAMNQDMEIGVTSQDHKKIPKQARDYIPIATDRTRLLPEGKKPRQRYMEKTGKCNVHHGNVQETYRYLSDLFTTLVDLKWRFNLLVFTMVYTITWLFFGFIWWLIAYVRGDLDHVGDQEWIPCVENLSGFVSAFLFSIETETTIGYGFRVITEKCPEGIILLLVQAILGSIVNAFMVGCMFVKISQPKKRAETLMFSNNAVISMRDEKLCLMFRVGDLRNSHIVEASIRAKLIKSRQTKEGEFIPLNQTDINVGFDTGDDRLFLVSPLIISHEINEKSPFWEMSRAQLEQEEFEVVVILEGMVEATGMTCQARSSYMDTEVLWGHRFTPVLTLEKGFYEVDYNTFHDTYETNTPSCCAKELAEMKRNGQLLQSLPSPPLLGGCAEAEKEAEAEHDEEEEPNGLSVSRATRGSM
Kind of experiment: Kir3.1/3.4 Electrophysiology Method (manual whole-cell patch clamp). The following applies: Electrophysiology Method (TABLE 1). Format: cell-based. In short, it runs like this: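 Percent inhibition is relative to the pre-drug current, both leak-subtracted using a potassium-free bather, taken as the mean current at −140 mV. The protocol was a step to +60 mV, a ramp to −140 mV, then a return to −60 mV holding, every 10 s. Cells were rat Kir3.1/3.4-transfected HEK293 recorded by whole-cell patch clamp.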
A general note: The patch-clamp technique gives a direct electrical read-out from membranes.

What is called IC50 is the midpoint of a concentration-inhibition curve. A high value points to lower potency.

Turning to `c1ccc(-c2csc3ncnc(N4CCC(COc5cccnc5)CC4)c23)cc1` [Example 180], the IC50 was under 500 nM.
`C=CCNCC1CCN(c2ncnc3scc(-c4ccccc4)c23)CC1` [Example 94, N-[[1-(5-phenylthieno[2,3-d]pyrimidin-4-yl)-4-piperidyl]methyl]prop-2-en-1-amine] had a half-maximal inhibitory concentration (IC50) of under 500 nM.
Consider `c1ccc(-c2csc3ncnc(N4CCC(CNCCN5CCCC5)CC4)c23)cc1` [Example 206], for which the half-inhibitory concentration (IC50) is under 500 nM.
In the case of `Fc1ccc(-c2csc3nc(Cl)nc(N4CCC(COCCN5CCCC5)CC4)c23)cc1` [Example 279] it was under 500 nM.
In the case of `c1ccc(-c2csc3ncnc(N4CCC(CNCCC5CCCO5)CC4)c23)cc1` (centres unmarked) [Example 102] it was under 500 nM.
Consider `c1cncc(-c2csc3ncnc(N4CCC(COCCN5CCCC5)CC4)c23)c1` [Example 324], for which the half-maximal inhibitory concentration (IC50) fell in the range of 500 to 3000 nM.
Compound `c1ccc(-c2csc3nc(N4CCC(COCCN5CCCC5)CC4)ncc23)cc1` [Example 148, 5-phenyl-2-[4-(2-pyrrolidin-1-ylethoxymethyl)-1-piperidyl]thieno[2,3-d]pyrimidine] had an IC50 of under 500 nM.
`c1ccc(-c2csc3ncnc(N4[C@@H]5CC[C@H]4CC(COCCN4CCCC4)C5)c23)cc1` (stereo partly drawn) [Example 164, 5-phenyl-4-[(1S,5R)-3-(2-pyrrolidin-1-ylethoxymethyl)-8-azabicyclo[3.2.1]octan-8-yl]thieno[2,3-d]pyrimidine] had an IC50 of under 500 nM.
As for `C[C@@H](CN(C)C)OCC1CCN(c2ncnc3scc(-c4ccccc4)c23)CC1` [Example 254], the IC50 was under 500 nM.
As for `CC(C)OCC1CCN(c2ncnc3scc(-c4ccccc4)c23)CC1` [Example 15, 4-[4-(isopropoxymethyl)-1-piperidyl]-5-phenyl-thieno[2,3-d]pyrimidine], the figure is 500 to 3000 nM; as for `CN(C)C1CCN(c2nc(NCCN3CCCC3)nc3scc(-c4ccccc4)c23)CC1` [Example 179], 500 to 3000 nM; as for `CC1CCC(C)N1CC1CCN(c2ncnc3scc(-c4ccccc4)c23)CC1` (centres unmarked) [Example 98, 4-[4-[(2,5-dimethylpyrrolidin-1-yl)methyl]-1-piperidyl]-5-phenyl-thieno[2,3-d]pyrimidine], 500 to 3000 nM.
Regarding `COCC1CCN(c2nc(NCCN3CCCC3)nc3scc(-c4ccccc4)c23)CC1` [Example 175], the 50% inhibitory concentration (IC50) was under 500 nM.
As for `CC(=O)NC1CCN(c2nc(N3CCC(CN(C)C4CCN(C)C4)CC3)c3c(-c4ccccc4)csc3n2)C1` (centres unmarked) [Example 226], the figure is under 500 nM; as for `Fc1ccc(-c2csc3ncnc(N4CCC(CNC5CCC5)CC4)c23)cc1` [Example 78, N-[[1-[5-(4-fluorophenyl)thieno[2,3-d]pyrimidin-4-yl]-4-piperidyl]methyl]cyclobutanamine], 500 to 3000 nM.
In turn, `c1ccc(-c2csc3ncnc(N4CCC(CN5CCC(N6CCCCC6)C5)CC4)c23)cc1` (centres unmarked) [Example 218] registered an IC50 of under 500 nM.
In the case of `COCC1CCN(c2nc(OC3CC4CC3CN4)nc3scc(-c4ccccc4)c23)CC1` (centres unmarked) [Example 307], the IC50 is under 500 nM.
As for `N[C@H]1CCCN(CC2CCN(c3ncnc4scc(-c5ccccc5)c34)CC2)C1` [Example 90, (3S)-1-[[1-(5-phenylthieno[2,3-d]pyrimidin-4-yl)-4-piperidyl]methyl]piperidin-3-amine], the figure is under 500 nM.
Compound `COc1ccccc1-c1csc2ncnc(N3C4CCC3CC(NC3CCC3)C4)c12` (centres unmarked) [Example 342] yielded an IC50 of under 500 nM.
For `CC(C)CC(=O)Nc1sc2nc(N3CCC(COCCN4CCCC4)CC3)ncc2c1-c1ccccc1` [Example 303], the IC50 was under 500 nM.
In turn, `CN1CCCC1CCNCC1CCN(c2ncnc3scc(-c4ccccc4)c23)C1` (centres unmarked) [Example 204] came in with an IC50 of under 500 nM.
In the case of `CNC(=O)CN(CC1CCN(c2ncnc3scc(-c4ccccc4)c23)CC1)C1CCC1` [Example 252, 2-[cyclobutyl-[[1-(5-phenylthieno[2,3-d]pyrimidin-4-yl)-4-piperidyl]methyl]amino]-N-methyl-acetamide] it was 500 to 3000 nM.
`CC(C)(C)NC(C)(C)C#Cc1ncnc2scc(-c3ccccc3)c12` [Example 318] returned a half-inhibitory concentration (IC50) of under 500 nM.
Take `CC(C)(C)NCC1CC2CCC(C1)N2c1ncnc2scc(-c3ccccc3)c12` (centres unmarked) [Example 333]: the IC50 was under 500 nM.
Take `CN1CCC(N(C)CC2CCN(c3ncnc4scc(-c5ccccc5)c34)CC2)C1` (centres unmarked) [Example 202]: the concentration for half-maximal inhibition (IC50) is under 500 nM.
In the case of `NC(=O)C1CCN(c2nc(N3CCOCC3)c3c(-c4ccccc4)csc3n2)C1` (centres unmarked) [Example 306] it was 3000 to 10000 nM.
`c1ccc(CNc2sc3ncnc(N4CCC(COCCN5CCCC5)CC4)c3c2-c2ccccc2)cc1` [Example 168, N-benzyl-5-phenyl-4-[4-(2-pyrrolidin-1-ylethoxymethyl)-1-piperidyl]thieno[2,3-d]pyrimidin-6-amine] came in with an IC50 of under 500 nM.
The compound `CC(NC1CC1)C1CCN(c2ncnc3scc(-c4ccccc4)c23)CC1` (centres unmarked) [Example 96, N-[1-[1-(5-phenylthieno[2,3-d]pyrimidin-4-yl)-4-piperidyl]ethyl]cyclopropanamine] gave an IC50 of under 500 nM.
Compound `CN(C)C1CCN(CC2CCN(c3nc(N4CCC(C(N)=O)C4)nc4scc(-c5ccccc5)c34)CC2)CC1` (centres unmarked) [Example 235] yielded a 50% inhibitory concentration (IC50) of under 500 nM.
Compound `c1ccc(-c2csc3nc(C4CC4)nc(N4CCC(COCCN5CCCC5)CC4)c23)cc1` [Example 360] displayed an IC50 of under 500 nM.
For the compound `COCC1C[C@H]2CC[C@@H](C1)N2c1nc(OC2CC3CC2CN3)nc2sc(C(=O)N(C)C)c(-c3ccccc3)c12` (stereo partly drawn) [Example 366, 2-(2-azabicyclo[2.2.1]heptan-5-yloxy)-4-[(1S,5R)-3-(methoxymethyl)-8-azabicyclo[3.2.1]octan-8-yl]-N,N-dimethyl-5-phenyl-thieno[2,3-d]pyrimidine-6-carboxamide], the half-inhibitory concentration (IC50) is 500 to 3000 nM.
In the case of `CCN(CC)C(=O)C1CCCN(c2nc(N3CCC(CN(C)C4CCN(C)C4)CC3)c3c(-c4ccccc4)csc3n2)C1` (centres unmarked) [Example 228], the IC50 was under 500 nM.
Compound `CN(CCC1CCCN1C)CC1CCN(c2ncnc3scc(-c4ccccc4)c23)CC1` (centres unmarked) [Example 101] returned a concentration for half-maximal inhibition (IC50) of under 500 nM.
In turn, `COc1ccccc1-c1csc2ncnc(N3C4CCC3CC(N(C)C3CCC3)C4)c12` (centres unmarked) [Example 350] came in with an IC50 of under 500 nM.
Regarding `Cn1ccnc1CCNCC1CCN(c2ncnc3scc(-c4ccccc4)c23)CC1` [Example 221], the IC50 is under 500 nM.
Turning to `CN1CCC(CCNCC2CCN(c3ncnc4scc(-c5ccccc5)c34)CC2)C1` (centres unmarked) [Example 104], the IC50 is under 500 nM.
On to `CN1CCN(CC2CCN(c3ncnc4scc(-c5ccccc5)c34)CC2)CC1` [Example 214], for which the 50% inhibitory concentration (IC50) is under 500 nM.
Compound `c1ccc(-c2csc3ncnc(N4CCC(COCCN5CCCC5)CC4)c23)cc1` [Example 5, 5-phenyl-4-[4-(2-pyrrolidin-1-ylethoxymethyl)-1-piperidyl]thieno[2,3-d]pyrimidine] had an IC50 of under 500 nM.
In the case of `CN1CCN(c2nc(N3CCC(CNCCC4CCCN4C)CC3)c3c(-c4ccccc4)csc3n2)CC1` (centres unmarked) [Example 114], the IC50 lay within 500 to 3000 nM.
As for `CN(C)CCN(C)CC1CCN(c2ncnc3scc(-c4ccccc4)c23)CC1` [Example 71, N,N,N′-trimethyl-N′-[[1-(5-phenylthieno[2,3-d]pyrimidin-4-yl)-4-piperidyl]methyl]ethane-1,2-diamine], the figure is under 500 nM; as for `OCC1CCN(CC2CCN(c3ncnc4scc(-c5ccccc5)c34)CC2)C1` (centres unmarked) [Example 95, [1-[[1-(5-phenylthieno[2,3-d]pyrimidin-4-yl)-4-piperidyl]methyl]pyrrolidin-3-yl]methanol], 500 to 3000 nM; as for `c1nc(N2CCC(COCCN3CCCC3)CC2)c2c(-c3ccoc3)csc2n1` [Example 315], under 500 nM.
`c1ccc(-c2csc3nc(N4CCC(COCCN5CCCC5)C4)ncc23)cc1` (centres unmarked) [Example 149] registered an IC50 of under 500 nM.
Take `CN1CCC(N(C)CC2CCN(c3nc(N4CCC(C(N)=O)C4)nc4scc(-c5ccccc5)c34)CC2)C1` (centres unmarked) [Example 120, 1-[4-[4-[[methyl-(1-methylpyrrolidin-3-yl)amino]methyl]-1-piperidyl]-5-phenyl-thieno[2,3-d]pyrimidin-2-yl]pyrrolidine-3-carboxamide]: the IC50 was under 500 nM.
In the case of `c1ccc(-c2csc3ncnc(N4C5CCC4CC(CN4CCCC4)C5)c23)cc1` (centres unmarked) [Example 335] it was under 500 nM; in that of `CN(C)CCN(C)CC1CCN(c2nc(N3CCC(C(N)=O)C3)nc3scc(-c4ccccc4)c23)CC1` (centres unmarked) [Example 225], under 500 nM.
Consider `CN1CCC(N(C)CC2CCN(c3ncnc4scc(-c5ccccc5)c34)C2)C1` (centres unmarked) [Example 205], for which the IC50 is under 500 nM.
